This is an account of results in publication PMC3745005 (Journal of biomolecular screening, 2012).

In this assay the target is PDE4A (catalytic domain of PDE4A10) (Homo sapiens, UniProt P27815). In words: enthalpy array nanocalorimetry, cAMP hydrolysis. Format: biochemical.
Sequence of PDE4A (catalytic domain of PDE4A10) (P27815 351-683): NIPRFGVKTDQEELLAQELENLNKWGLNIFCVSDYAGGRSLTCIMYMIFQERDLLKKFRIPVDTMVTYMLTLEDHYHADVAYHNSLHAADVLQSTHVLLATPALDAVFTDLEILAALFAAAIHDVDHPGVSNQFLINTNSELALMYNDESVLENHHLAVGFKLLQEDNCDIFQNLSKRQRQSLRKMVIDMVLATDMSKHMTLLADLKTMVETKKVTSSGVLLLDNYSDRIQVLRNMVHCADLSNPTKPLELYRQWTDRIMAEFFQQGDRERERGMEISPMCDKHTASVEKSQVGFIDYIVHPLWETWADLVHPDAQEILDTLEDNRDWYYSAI

On to `CC(C)Cn1c(=O)n(C)c(=O)c2[nH]cnc21` [IBMX], for which the Ki (commonly the equilibrium dissociation constant of an inhibitor or competing ligand from its target) came out at 8.3 ± 1.5 µM.
